The source of these data is patent US11648254B2 (Kumquat Biosciences Inc., priority 2021, dated 2023).

Assay [1] relates to MIA PaCa-2 cells (K-Ras G12C). As to the kind of experiment: Ras-SOS cellular growth inhibition assay (CellTiter-Glo, 3D). The format is cell-based. The procedure:
MIA PaCa-2 (ATCC CRL-1420) and NCI-H1792 (ATCC CRL-5895) cell lines comprise a G12C mutation can be used to assess Ras cellular signaling in vitro, e.g., in response to a subject compound of the present disclosure. […] Cell culture medium (comprising, for example, MIA PaCa-2 cells) is prepared with DMEM/Ham's F12 (e.g., with stable Glutamine, 10% FCS, and 2.5% Horse Serum. NCI-H1792 culture medium is prepared with RPMI 1640 (e.g., with stable Glutamine) and 10% FCS. A CellTiter-Glo (CTG) luminescent based assay (Promega) is used to assess growth of the cells, as a measurement of the ability of the compounds herein to inhibit Ras signaling in the cells. The cells (e.g., 800-1200 per well) are seeded in their respective culture medium in standard tissue culture-treated ultra-low attachment surface 96-well format plates (Corning Costar #3474). The day after plating, cells are treated with a dilution series (e.g., a 9 point 3-fold dilution series) of the compounds herein (e.g., approximately 125 μl final volume per well). Cell viability can be monitored (e.g., approximately 5 days later) according to the manufacturer's recommended instructions, where the CellTiter-Glo reagent is added (e.g., approximately 65 μl), vigorously mixed, covered, and placed on a plate shaker (e.g., approximately for 20 min) to ensure sufficient cell lysis prior to assessment of luminescent signal. The IC50 values are determined using the four-parameter fit. The resulting IC50 value is a measurement of the ability of the compounds herein to reduce cell growth of Ras-driven cells as representative tumor cells.

A further assay deals with SOS1 (Homo sapiens (Human), UniProt Q07889). As to the kind of experiment: Ras-SOS interaction assay (HTRF). It counts as biochemical. The source says: The ability of any compound of the present disclosure to reduce a Ras protein signaling output by, e.g., interfering or disrupting interaction (or binding) between SOS1 and a Ras protein can be assessed in vitro. For example, the equilibrium interaction of human SOS1 (hSOS1) with human wildtype Kras or K-Ras mutant (e.g., hK-Ras G12C mutant, or hK-RasG12C) can be assessed as a proxy or an indication for a subject compound's ability to inhibit SOS. Detection of such interaction is achieved by measuring homogenous time-resolved fluorescence resonance energy transfer (HTRF) from (i) a fluorescence resonance energy transfer (FRET) donor (e.g., antiGST-Europium) that is bound to GST-tagged K-RasG12C to (ii) a FRET acceptor (e.g., anti-6His-XL665) bound to a His-tagged hSOS1.
The assay buffer can contain 5 mM HEPES pH 7.4, 150 mM NaCl, 10 mM EDTA, 1 mM DTT, 0.05% BSA, 0.0025% (v/v) Igepal and 100 mM KF. A Ras working solution is prepared in assay buffer containing typically 10 nM of the protein construct (e.g., GST-tagged hK-RasG12C) and 2 nM of the FRET donor (e.g., antiGST-Eu(K) from Cisbio, France). A SOS1 working solution is prepared in assay buffer containing typically 10 nM of the protein construct (e.g., His-hSOS1) and 10 nM of the FRET acceptor (e.g., anti-6His-XL665 from Cisbio, France). An inhibitor control solution is prepared in assay buffer containing 10 nM of the FRET acceptor without the SOS1 protein.
A fixed reaction mixture with or without test compound is transferred into a 384-well plate. Ras working solution is added to all wells of the test plate. SOS1 working solution is added to all wells except for those that are subsequently filled the inhibitor control solution. After approximately 60 min incubation, the fluorescence is measured with a M1000Pro plate reader (Tecan) using HTRF detection (excitation 337 nm, emission 1: 620 nm, emission 2: 665 nm). Compounds are tested in duplicates at different concentrations (for example, 10 μM, 2.5 μM, 0.63 μM, 0.16 μM, 0.04 μM, 0.01 μM test compound). The ratiometric data (i.e., emission 2 divided by emission 1) is used to calculate IC50 values against SOS1 using GraphPad Prism (GraphPad software).
In general terms: TR-FRET usually uses a lanthanide donor and a delayed reading to cut background.

Assay [2] concerns NCI-H1975 cells (EGFR T790M L858R). Briefly: EGFR-SOS cellular inhibition assay (CellTiter-Glo, 3D). The format is cell-based.
Setting [3] is: MIA PaCa-2, 3D proliferation, about 5 days, read-out: Bio-Cell-Prolif-3D (MiaPaca2 IC50).
Where [4] appears, read: MIA PaCa-2, read-out: IC50 in inhibiting MIA PaCa-2 cell growth.
Where [5] appears, read: K-RasG13D utilized, read-out: IC50 inhibition of SOS.
[6] abbreviates: K-RasG13D, read-out: IC50 value against SOS1.
Where [7] appears, read: NCI-H1975, 3D proliferation, about 5 days, read-out: Bio-Cell-Prolif-3D (H1975 IC50).
[8] abbreviates: NCI-H1975, EGFR T790M L858R, read-out: IC50 in inhibiting growth of NCI-H1975 cell line.
Setting [9] is: Homo sapiens, MIA PaCa-2, 120 h, MIA PaCa-2, 3D proliferation, about 5 days, read-out: Bio-Cell-Prolif-3D (MiaPaca2 IC50).
Setting [10] is: Homo sapiens, MIA PaCa-2, MIA PaCa-2, read-out: IC50 in inhibiting MIA PaCa-2 cell growth.
Where [11] appears, read: Homo sapiens, 120 h, NCI-H1975, 3D proliferation, about 5 days, read-out: Bio-Cell-Prolif-3D (H1975 IC50).
Setting [12] is: Homo sapiens, NCI-H1975, EGFR T790M L858R, read-out: IC50 in inhibiting growth of NCI-H1975 cell line.

Where two headings read alike, the source gives them in different places.

What is called IC50 is the concentration that inhibits the measured activity by half.

Consider “4-(4-((1-(3-(difluoro(tetrahydrofuran-3-yl)methyl)-2-fluorophenyl)ethyl)amino)-7-methoxy-2-methylpyrido[2,3-d]pyrimidin-6-yl)tetrahydro-2H-thiopyran 1,1-dioxide [Compound 148]”, for which the IC50 was at most 1000 nM in assay [1] (setting [3]); under 500 nM in assay [1] (setting [4]); under 100 nM on SOS1 (setting [5]); under 50 nM on SOS1 (setting [6]); at most 1000 nM in assay [2] (setting [7]); under 500 nM in assay [2] (setting [8]).
As to `Cc1nc(N[C@H](C)c2cccc(C(F)(F)C(C)O)c2F)c2cc(C3(C#N)CC3)c(Cl)nc2n1` (stereo in doubt) [Compound 333, 1-(7-chloro-4-(((R)-1-(3-((S)-1,1-difluoro-2-hydroxypropyl)-2-fluorophenyl)ethyl)amino)-2-methylpyrido[2,3-d]pyrimidin-6-yl)cyclopropane-1-carbonitrile], the IC50 in assay [1] (setting [9]) was at most 1000 nM; in assay [1] (setting [10]) it was under 500 nM; on SOS1 (setting [5]), under 100 nM; on SOS1 (setting [6]) it was under 50 nM; in assay [2] (setting [11]), at most 1000 nM; in assay [2] (setting [12]), under 500 nM.
For the molecule `COc1nc2nc(C)nc(N[C@H](C)c3cccc(C(F)F)c3F)c2cc1C1(C#N)CC1` [Compound 101, 1-(4-((R)-1-(2-fluoro-3-(difluoromethyl)phenyl)ethylamino)-7-methoxy-2-methylpyrido[2,3-d]pyrimidin-6-yl)cyclopropanecarbonitrile], the IC50 in assay [1] (setting [9]) was at most 1000 nM; on SOS1 (setting [5]) it was under 100 nM; in assay [2] (setting [11]), at most 1000 nM.
Turning to `Cc1nc(N[C@H](C)c2cccc(C(F)F)c2F)c2cc(C3CCN(C(C)C)CC3)c(Cl)nc2n1` [Compound 104, (R)-7-chloro-N-(1-(3-(difluoromethyl)-2-fluorophenyl)ethyl)-6-(1-isopropylpiperidin-4-yl)-2-methylpyrido[2,3-d]pyrimidin-4-amine], the IC50 in assay [1] (setting [9]) is at most 1000 nM; in assay [1] (setting [10]) it was under 500 nM; at SOS1 (setting [5]), under 100 nM; at SOS1 (setting [6]), under 50 nM; in assay [2] (setting [11]), at most 1000 nM; in assay [2] (setting [12]) it was under 500 nM.
In the case of `COc1nc2nc(C)nc(N[C@H](C)c3cccc(C(F)F)c3F)c2cc1CN1CCN(C(C)C)CC1` [Compound 105, (R)—N-(1-(3-(difluoromethyl)-2-fluorophenyl)ethyl)-6-((4-isopropylpiperazin-1-yl)methyl)-7-methoxy-2-methylpyrido[2,3-d]pyrimidin-4-amine], the IC50 in assay [1] (setting [9]) was at most 1000 nM; in assay [1] (setting [10]), under 500 nM; at SOS1 (setting [5]), under 100 nM; on SOS1 (setting [6]), under 50 nM; in assay [2] (setting [11]) it was at most 1000 nM; in assay [2] (setting [12]) it was under 500 nM.
For the molecule `COc1nc2nc(C)nc(N[C@H](C)c3cccc(C(F)F)c3F)c2cc1N1CCNCC1` [Compound 110, (R)-N-(1-(3-(difluoromethyl)-2-fluorophenyl)ethyl)-7-methoxy-2-methyl-6-(piperazin-1-yl)pyrido[2,3-d]pyrimidin-4-amine], the figures for the IC50 (in assay [1] (setting [9]); at SOS1 (setting [5]); in assay [2] (setting [11])) were at most 1000 nM, under 100 nM and at most 1000 nM, respectively.
On to `Cc1nc(N[C@H](C)c2cccc(C(F)F)c2F)c2cc(C3CCN(C)CC3)c(OCCN(C)C)nc2n1` [Compound 155], for which the IC50 in assay [1] (setting [9]) and in assay [2] (setting [11]) was at most 1000 nM throughout.
For `COc1nc2nc(C)nc(N[C@H](C)c3cccc(C(F)(F)C4CCN(C)CC4)c3F)c2cc1N1CCN(C(C)C)CC1` [Compound 182, (R)-N-(1-(3-(difluoro(1-methylpiperidin-4-yl)methyl)-2-fluorophenyl)ethyl)-6-(4-isopropylpiperazin-1-yl)-7-methoxy-2-methylpyrido[2,3-d]pyrimidin-4-amine], the IC50 is at most 1000 nM in assay [1] (setting [9]), under 500 nM in assay [1] (setting [10]), at most 1000 nM in assay [2] (setting [11]) and under 500 nM in assay [2] (setting [12]).
In the case of `COc1nc2nc(C)nc(N[C@H](C)c3cccc(C(F)(F)C4CCN(C(C)C)CC4)c3F)c2cc1C1(C#N)CC1` [Compound 377, (R)-1-(4-((1-(3-(difluoro(1-isopropylpiperidin-4-yl)methyl)-2-fluorophenyl)ethyl)amino)-7-methoxy-2-methylpyrido[2,3-d]pyrimidin-6-yl)cyclopropane-1-carbonitrile], the IC50 in assay [1] (setting [9]) was at most 1000 nM; in assay [1] (setting [10]) it was under 500 nM; in assay [2] (setting [11]) it was at most 1000 nM; in assay [2] (setting [12]), under 500 nM.
On to `COc1nc2nc(C)nc(N[C@H](C)c3cccc(C(F)(F)F)c3C)c2cc1C1CCN(C)CC1` [Compound 380, (R)-7-methoxy-2-methyl-N-(1-(2-methyl-3-(trifluoromethyl)phenyl)ethyl)-6-(1-methylpiperidin-4-yl)pyrido[2,3-d] pyrimidin-4-amine], for which the IC50 in assay [1] (setting [10]) is under 500 nM; on SOS1 (setting [5]), under 100 nM; on SOS1 (setting [6]), under 50 nM.
As for `COc1nc2nc(CCN3CCC3)nc(N[C@H](C)c3cccc(C(C)(F)F)c3F)c2cc1C1(C#N)CC1` [Compound 425, (R)-1-(2-(2-(azetidin-1-yl)ethyl)-4-((1-(3-(1,1-difluoroethyl)-2-fluorophenyl)ethyl)amino)-7-methoxypyrido[2,3-d]pyrimidin-6-yl)cyclopropane-1-carbonitrile], the IC50 at SOS1 (setting [5]) was under 100 nM; on SOS1 (setting [6]), under 50 nM.
`COc1nc2nc(CCN3CCC3)nc(N[C@H](C)c3cccc(C(F)(F)F)c3F)c2cc1C1(C#N)CC1` [Compound 426, (R)-1-(2-(2-(azetidin-1-yl)ethyl)-4-((1-(2-fluoro-3-(trifluoromethyl)phenyl)ethyl)amino)-7-methoxypyrido[2,3-d]pyrimidin-6-yl)cyclopropane-1-carbonitrile]: the IC50 at SOS1 (setting [5]) was under 100 nM.
As to `COc1nc2nc(CCN3CCC3)nc(N[C@H](C)c3cccc(C(F)(F)F)c3C)c2cc1C1(C#N)CC1` [Compound 427, (R)-1-(2-(2-(azetidin-1-yl)ethyl)-7-methoxy-4-((1-(2-methyl-3-(trifluoromethyl)phenyl)ethyl)amino)pyrido[2,3-d]pyrimidin-6-yl) cyclopropane-1-carbonitrile], the IC50 is under 100 nM on SOS1 (setting [5]) and under 50 nM on SOS1 (setting [6]).
Turning to “(R)-4-(4-((1-(3-(2-(2-(dimethylamino)ethoxy)-1,1-difluoroethyl)-2-fluorophenyl)ethyl)amino)-7-methoxy-2-methylpyrido[2,3-d]pyrimidin-6-yl)tetrahydro-2H-thiopyran 1,1-dioxide [Compound 271]”, the IC50 in assay [1] (setting [3]) was at most 1000 nM; in assay [1] (setting [4]), under 500 nM; in assay [2] (setting [7]), at most 1000 nM; in assay [2] (setting [8]), under 500 nM.
